Data: patent US20230065462A1, “Pharmaceutical composition and use thereof” (HENAN TAIFENG BIOLOGICAL TECHNOLOGY CO., LTD., priority 2020, published 2023)
Entries after “also recorded” stand apart in the source; their conditions may differ.

Columns and labels:
Assay type in all cases: in vivo, Leghorn chickens
cockscomb [1] = assay: Cockscomb hemangioma model: general (naked eye) observation of cockscomb after drug injection
From the text: Animals: 88 Leghorn chickens of clean grade and raised under uniform feeding conditions in the same batch, male, weighing 1000 1500 g, 10 12 weeks old, provided by the Animal Experimental Center of Qinglongshan Animal Breeding Farm in Jiangning, Nanjing. The cockscomb is required to be plump, smooth, ruddy, and no lesion. All animals are reared in the same laboratory according to the requirements of clean grade, and they can eat and drink freely. The experimental process complies with the People's Republic of China “Regulations on the Management of Laboratory Animals” and ethical requirements. Test drugs: each component of the drug composition is commercially available. Citric acid, paeoniflorin, and gallic acid are mixed at the ratio described in the following table to obtain com[…]-I, respectively. Then, each composition was dissolved in water for injection to obtain an injection with a concentration of 13.2 mg/mL. The positive control group used lauromacrogol parenteral solution (Specification: 10 mL: 100 mg, Shaanxi Tianyu Pharmaceutical Co., Ltd.) as a sclerosing agent, and was prepared into a 5 mg/ml injection with water for injection before use. The clean grade of male Leghorn chickens were selected and randomly divided into a blank control group, a positive control group and a pharmaceutical composition groups A-I, a total of 11 groups, each with 8 chickens. Four points were selected for the cockscomb of each cock as the drug injection point, and the cockscomb was observed, photographed, and sampled before the experiment and 3 days, 7 days, 14 days, and 28 days after the experiment. […] As the thickness of the cockscomb was 8 10 mm, only one side of the cockscomb is injected subcutaneously, and the non-injected side of the contralateral side was used as the self-control group. After the injection, the cocks were continued to raise under uniform conditions, eaten and drunk freely until the material was obtained. Before drug injection, the general condition of the cockscomb, including shape, color, thickness, surface condition, etc., were observed and recorded with photos. After the drug injection, the observation was performed every day, and included: the color change of the cockscomb, whether the epidermis has white spots, whether the edema occurs, whether tissue necrosis occurs on the surface, whether scab occurs, whether scar occurs, and whether the scab falls off, and the time distribution of fall off. The observation were recorded by taking photos at four time points, i.e., 3 days, 7 days, 14 days, and 28 days after the drug injection, and meanwhile, the experimental cock was anesthetized and the tissues at the injection site were taken and examined by light microscope.

cockscomb [2] = assay: Cockscomb hemangioma model: HE staining, histopathological changes under light microscope
From the text: The clean grade of male Leghorn chickens were selected and randomly divided into a blank control group, a positive control group and a pharmaceutical composition groups A-I, a total of 11 groups, each with 8 chickens. Four points were selected for the cockscomb of each cock as the drug injection point, and the cockscomb was observed, photographed, and sampled before the experiment and 3 days, 7 days, 14 days, and 28 days after the experiment.
(§1) The experimental cocks were anesthetized through intramuscular injection of 0.1 mg/kg Sumianxin, fixed, and cleaned, and after being disinfected, each cockscomb was marked with gentian violet to form 4 circles with a diameter of 1 cm in turn on one side of the each cockscomb from front to back, and was injected at the center of each circle: the blank control group was injected with 0.5 mL of solvent (water for injection), the positive control group was injected with 0.5 mL of 5 mg/ml lauromacrogol injection, and the groups A-I were injected with 0.5 mL of the corresponding 13.2 mg/mL injection of compositions 1-9, respectively, and the standard is that the surface tissue of the cockscomb turns white and produces a skin hill. As the thickness of the cockscomb was 8˜10 mm, only one side of the cockscomb is injected subcutaneously, and the non-injected side of the contralateral side was used as the self-control group. After the injection, the cocks were continued to raise under uniform conditions, eaten and drunk freely until the material was obtained.
(§2) The tissues at the injection site were taken, fixed in 10% neutral formaldehyde fixative for 48 hours, embedded in paraffin, sectioned, stained with conventional HE, and examined by light microscope at 3 days, 7 days, 14 days, and 28 days after drug injection, respectively.

cockscomb capillaries = assay: Cockscomb hemangioma model: number of capillaries (HE staining and computer image analysis); conditions: x±s, high-power field
Description: as §1, §2
The processed tissue sections were sorted according to the number, and observed through an optical microscope. The changes in the number of blood vessels in each tissue section were observed under the adjusted high-power field of view (DABX400), and the changes in the number of apoptosis were observed by the TUNEL method. Five fields of view were randomly selected under the high-power field of view, and the image was analyzed using Tmage Proplus 6.0 software.
All data were processed with SPSS statistical software, and the data were expressed as x±s.

[3] = system: vascular endothelial cells; assay: Cockscomb hemangioma model: cell apoptosis detection (TUNEL method and computer image analysis); conditions: x±s, high-power field
Description: as §1
The TUNEL method is used for cell apoptosis detection including cell detection and tissue specimen detection. The principle is that deoxyuridine triphosphate is connected to the 3′-OH end of broken DNA in apoptotic cells by the catalysis of deoxyribonucleotide terminal transferase, and then is also bound to the luciferin antibody linked with horseradish peroxidase, and thus, the apoptotic cells can be accurately positioned through the bond of the luciferin antibody with the horseradish peroxidase substrate diaminobenzidine. […]

For lauromacrogol [Positive control group], the “Cockscomb edema after drug injection” value (cockscomb [1]; 0 d) was “no”, the “The color and scab at the cockscomb injection site after drug injection” value (“The color and scab” below) (cockscomb [1]; 0 d) was “white skin hills” and the “Cockscomb appearance after drug injection” value (“Cockscomb appearance” below) (cockscomb [1]; 0 d, 0.5 mL subcutaneous injection per point) was “normal”. The “Cockscomb appearance” value (cockscomb [1]; 3 d) was “normal”, the “Cockscomb edema after drug injection” value (cockscomb [1]; 3 d) was “mild edema” and the “The color and scab” value (cockscomb [1]; 3 d) was “dark red”. The “Cockscomb appearance” value (cockscomb [1]; 7 d) was “normal”, the “Cockscomb edema after drug injection” value (cockscomb [1]; 7 d) was “the edema decreased” and the “The color and scab” value (cockscomb [1]; 7 d) was “light yellow”. For the same substance, the “Cockscomb appearance” value (cockscomb [1]; 14 d) was “normal”, the “Cockscomb edema after drug injection” value (cockscomb [1]; 14 d) was “the edema gradually decreased; also recorded: faintly edema” and the “The color and scab” value (cockscomb [1]; 14 d) was “the center part of the drug injection site had a black scab, the surrounding part was yellow”. The “Cockscomb appearance” value (cockscomb [1]; 28 d) was “normal”, the “Cockscomb edema after drug injection” value (cockscomb [1]; 28 d) was “with no edema and with scar” and the “The color and scab” value (cockscomb [1]; 28 d) was “the black scab at the injection site fell off, became light yellow”. For the same substance, the “appearance of the cockscomb” value (cockscomb [1]; throughout the experiment) was “remained normal”, the “The internal and external conditions of subcutaneous capillary lumens of cockscomb after drug injection” value (from here on “The internal and external conditions”) (cockscomb [2]; 3 d) was “inflammatory cells in the peripheral tissues were infiltrated, interstitial edema was obvious, and a small amount of collagen fibers proliferated” and the “The morphology and number of subcutaneous capillaries of cockscomb after drug injection” value (shortened to “The morphology and number”) (cockscomb [2]; 3 d) was “subcutaneous capillaries were destroyed and fused”. For the same substance, the “The internal and external conditions” value (cockscomb [2]; 7 d) was “collagen fibers were further proliferated, and inflammatory cells infiltrated and interstitial edema decreased”, the “The morphology and number” value (cockscomb [2]; 7 d) was “capillaries were further decreased” and the “The internal and external conditions” value (cockscomb [2]; 14 d) was “collagen fibers continued to proliferate”. For the same substance, the “The morphology and number” value (cockscomb [2]; 14 d) was “the number of blood vessels continued to decrease”, the “The internal and external conditions” value (cockscomb [2]; 28 d) was “filled with a large number of collagen fibers” and the “The morphology and number” value (cockscomb [2]; 28 d) was “the capillaries were significantly reduced”. It also gave a number of capillaries (cockscomb capillaries; 3 d) of 47.05 ± 4.12, a number of capillaries (cockscomb capillaries; 7 d) of 41.89 ± 4.25 and a number of capillaries (cockscomb capillaries; 14 d) of 36.59 ± 3.62. For the same substance, the number of capillaries (cockscomb capillaries; 28 d) was 24.68 ± 4.33, the “number of apoptotic cells” value ([3]; 3 d) was 21.02 ± 3.56 and the “number of apoptotic cells” value ([3]; 7 d) was 36.78 ± 3.87. The “number of apoptotic cells” value ([3]; 14 d) was 54.68 ± 3.65 and the “number of apoptotic cells” value ([3]; 28 d) was 68.62 ± 3.27.
